Consider 23 compounds from US12629374B2, “Antimalarial agents” (Merck Sharp & Dohme LLC, priority 2020, dated 2026).

One assay deals with ring stage parasites. Nature of the assay: Parasite growth potency assay, 72 hours, LDH readout. Type of assay: cell-based. Particulars: 72 h, parasite growth measured by LDH assay after 72 hours at 37° C.; 0.7% rings, 2% haematocrit; read-out: EC50. The procedure, abridged:
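Parasite growth was quantified by LDH assay after a −80 °C freeze-thaw. Before that, compound was incubated for 72 h at 37 °C under humidified gas with ring-stage cultures adjusted to 0.7% parasitemia and 2% haematocrit in serum- and albumax-supplemented RPMI-Hepes.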
`CCC1(CC)CC(=O)N([C@H](CCOC)c2cccc(C(=O)N[C@H]3c4cc(F)ccc4OC(C)(C)[C@@H]3O)c2)C(=N)N1` [Example 165A, [4,4-diethyl-1-[(1R)-1-[3-[[(3R,4S)-6-fluoro-3-hydroxy-2,2-dimethyl-chroman-4-yl]carbamoyl]phenyl]-3-methoxy-propyl]-6-oxo-hexahydropyrimidin-2-ylidene]ammonium; 2,2,2-trifluoroacetate]: the EC50 (as a rule, the concentration at which the effect is half-maximal) came to 41.4 nM.

Regarding `CCC1(CC)CC(=O)N([C@H](CCOC)c2cccc(C(=O)N[C@@H]3c4cc(F)ccc4OC(C)(C)[C@H]3O)c2)C(=N)N1` [Example 165B, [4,4-diethyl-1-[(1R)-1-[3-[[(3S,4R)-6-fluoro-3-hydroxy-2,2-dimethyl-chroman-4-yl]carbamoyl]phenyl]-3-methoxy-propyl]-6-oxo-hexahydropyrimidin-2-ylidene]ammonium; 2,2,2-trifluoroacetate], the EC50 was 0.4 nM. For `COCC[C@H](c1cccc(C(=O)N[C@@H]2c3ccccc3C3(CC3)[C@H]2O)c1)N1C(=N)NC(C)(C)CC1=O` [Example 167, [1-[(1R)-1-[3-[(2′-hydroxyspiro[cyclopropane-1,3′-indane]-1′-yl)carbamoyl]phenyl]-3-methoxy-propyl]-4,4-dimethyl-6-oxo-hexahydropyrimidin-2-ylidene]ammonium; 2,2,2-trifluoroacetate], the EC50 was 3.1 nM. With `CCC1(C)CC(=O)N([C@H](CCOC)c2cccc(C(=O)N[C@@H]3c4ccccc4C4(CC4)[C@H]3O)c2)C(=N)N1` (stereo partly drawn) [Example 168, [4-ethyl-1-[(1R)-1-[3-[(2′-hydroxyspiro[cyclopropane-1,3′-indane]-1′-yl)carbamoyl]phenyl]-3-methoxy-propyl]-4-methyl-6-oxo-hexahydropyrimidin-2-ylidene]ammonium; 2,2,2-trifluoroacetate], the EC50 came to 1.4 nM. Same read-out and setting: the value for `COCC[C@H](c1cc(F)cc(C(=O)N[C@@H]2c3ccccc3C[C@H]2O)c1)N1C(=N)NC(C)(C)CC1=O` [Example 169, [1-[1-[3-fluoro-5-[[(1R,2R)-2-hydroxyindan-1-yl]carbamoyl]phenyl]-3-methoxy-propyl]-4,4-dimethyl-6-oxo-hexahydropyrimidin-2-ylidene]ammonium; 2,2,2-trifluoroacetate] was 4.7 nM. The same measure, in the same setting: for `CCC1(CC)CC(=O)N([C@H](CCOC)c2cccc(C(=O)N[C@@H]3c4cc(F)ccc4C[C@H]3O)c2)C(=N)N1` [Example 170, [4,4-diethyl-1-[(1R)-1-[3-[(6-fluoro-2-hydroxy-indan-1-yl)carbamoyl]phenyl]-3-methoxy-propyl]-6-oxo-hexahydropyrimidin-2-ylidene]ammonium; 2,2,2-trifluoroacetate] the value was 0.7 nM. Same read-out and setting: for `CCOCC[C@H](c1cccc(C(=O)N[C@@H]2c3ccccc3C[C@H]2O)c1)N1C(=N)NC(C)(C)CC1=O` [Example 171, [1-[3-ethoxy-1-[3-[[(1R,2R)-2-hydroxyindan-1-yl]carbamoyl]phenyl]propyl]-4,4-dimethyl-6-oxo-hexahydropyrimidin-2-ylidene]ammonium; 2,2,2-trifluoroacetate] the value was 5.2 nM; for `CC[C@@]1(C)CC(=O)N([C@H](CCOC(F)F)c2cccc(C(=O)N[C@@H]3c4ccccc4C[C@H]3O)c2)C(=N)N1` [Example 172, [(4S)-1-[3-(difluoromethoxy)-1-[3-[[(1R,2R)-2-hydroxyindan-1-yl]carbamoyl]phenyl]propyl]-4-ethyl-4-methyl-6-oxo-hexahydropyrimidin-2-ylidene]ammonium; 2,2,2-trifluoroacetate], 1.7 nM; for `COCC[C@H](c1cc(F)cc(C(=O)N[C@H]2CC(C)(C)Oc3ccccc32)c1)N1C(=N)NC(C)(C)CC1=O` [Example 173, [1-[1-[3-[[(4S)-2,2-dimethylchroman-4-yl]carbamoyl]-5-fluoro-phenyl]-3-methoxy-propyl]-4,4-dimethyl-6-oxo-hexahydropyrimidin-2-ylidene]ammonium; 2,2,2-trifluoroacetate], 1 nM. Consider `COCC[C@H](c1cc(F)cc(C(=O)N[C@@H]2c3ccccc3OC(C)(C)[C@H]2O)c1)N1C(=N)NC(C)(C)CC1=O` [Example 174, [1-[1-[3-fluoro-5-[[(3S,4R)-3-hydroxy-2,2-dimethyl-chroman-4-yl]carbamoyl]phenyl]-3-methoxy-propyl]-4,4-dimethyl-6-oxo-hexahydropyrimidin-2-ylidene]ammonium; 2,2,2-trifluoroacetate], for which the EC50 was found to be 0.9 nM.

As for `CCC1(CC)CC(=O)N([C@H](CCOC)c2cc(F)cc(C(=O)N[C@@H]3c4ccccc4OC3(C)COC)c2)C(=N)N1` (stereo partly drawn) [Example 176B, [4,4-diethyl-1-[(1R)-1-[3-fluoro-5-[[2-(methoxymethyl)-2-methyl-3H-benzofuran-3-yl]carbamoyl]phenyl]-3-methoxy-propyl]-6-oxo-hexahydropyrimidin-2-ylidene]ammonium; 2,2,2-trifluoroacetate], the EC50 was 0.9 nM.

With `COCC[C@H](c1cccc(C(=O)N[C@H]2CC(C)(C)Oc3ccccc32)c1)N1C(=N)NC(C)(C)CC1=O` [Example 177, [1-[(1R)-1-[3-[[(4S)-2,2-dimethylchroman-4-yl]carbamoyl]phenyl]-3-methoxy-propyl]-4,4-dimethyl-6-oxo-hexahydropyrimidin-2-ylidene]ammonium; 2,2,2-trifluoroacetate], the EC50 is 2.1 nM. `COCC[C@H](c1cccc(C(=O)N[C@@H]2c3ccccc3OC(C)(C)[C@H]2O)c1)N1C(=N)NC(C)(C)CC1=O` [Example 178, [1-[(1R)-1-[3-[[(3S,4R)-3-hydroxy-2,2-dimethyl-chroman-4-yl]carbamoyl]phenyl]-3-methoxy-propyl]-4,4-dimethyl-6-oxo-hexahydropyrimidin-2-ylidene]ammonium; 2,2,2-trifluoroacetate]: the EC50 stood at 2.4 nM. Regarding `COCC[C@H](c1cccc(C(=O)N[C@@H]2c3ccccc3C[C@H]2O)c1)N1C(=N)NC(C)(C)CC1=O` [Example 179, [1-[(1R)-1-[3-[[(1R,2R)-2-hydroxyindan-1-yl]carbamoyl]phenyl]-3-methoxy-propyl]-4,4-dimethyl-6-oxo-hexahydropyrimidin-2-ylidene]ammonium; 2,2,2-trifluoroacetate], the EC50 is 8.3 nM.

For `CCC1(CC)CC(=O)N([C@H](CCOC)c2cccc(C(=O)N[C@@H]3c4ccccc4OC3(C)C)c2)C(=N)N1` [Example 181A, [1-[(1R)-1-[3-[(2,2-dimethyl-3H-benzofuran-3-yl)carbamoyl]phenyl]-3-methoxy-propyl]-4,4-diethyl-6-oxo-hexahydropyrimidin-2-ylidene]ammonium; 2,2,2-trifluoroacetate], the EC50 was 3 nM. As for `CCC1(CC)CC(=O)N([C@H](CCOC)c2cccc(C(=O)N[C@H]3c4ccccc4OC3(C)C)c2)C(=N)N1` [Example 181B, [1-[(1R)-1-[3-[(2,2-dimethyl-3H-benzofuran-3-yl)carbamoyl]phenyl]-3-methoxy-propyl]-4,4-diethyl-6-oxo-hexahydropyrimidin-2-ylidene]ammonium; 2,2,2-trifluoroacetate], the half-maximal effective concentration (EC50) stood at 71.2 nM. Same read-out and setting: for `CC1(C)CC(=O)N(Cc2cccc(C(=O)N[C@@H]3c4cc(F)ccc4OC(C)(C)[C@H]3O)c2)C(=N)N1` [Example 182, [1-[[3-[[(3S,4R)-6-fluoro-3-hydroxy-2,2-dimethyl-chroman-4-yl]carbamoyl]phenyl]methyl]-4,4-dimethyl-6-oxo-hexahydropyrimidin-2-ylidene]ammonium; 2,2,2-trifluoroacetate] the value was 5.4 nM.

As to `CC1(C)CC(=O)N(Cc2cc(F)cc(C(=O)N[C@@H]3c4ccccc4OC(C)(C)[C@H]3O)c2)C(=N)N1` [Example 183, [1-[[3-fluoro-5-[[(3S,4R)-3-hydroxy-2,2-dimethyl-chroman-4-yl]carbamoyl]phenyl]methyl]-4,4-dimethyl-6-oxo-hexahydropyrimidin-2-ylidene]ammonium; 2,2,2-trifluoroacetate], the EC50 was found to be 9.1 nM.

In the case of `COCC[C@H](c1cccc(C(=O)N[C@@H]2c3ccccc3CC2(O)C(F)(F)F)c1)N1C(=N)NC(C)(C)CC1=O` (stereo partly drawn) [Example 188, [1-[(1R)-1-[3-[[2-hydroxy-2-(trifluoromethyl)indan-1-yl]carbamoyl]phenyl]-3-methoxy-propyl]-4,4-dimethyl-6-oxo-hexahydropyrimidin-2-ylidene]ammonium; 2,2,2-trifluoroacetate], the EC50 was 7.3 nM.

Still in this assay, the particulars now being: parasite growth measured by LDH assay after 72 hours at 37° C.; 0.7% rings, 2% haematocrit; read-out: EC50.
For the compound `COCC[C@H](c1cccc(C(=O)N[C@@H]2c3ccccc3C[C@@]2(C)O)c1)N1C(=N)NC(C)(C)CC1=O` [Example 166A, N-[(1R,2R)-2-hydroxy-2-methyl-indan-1-yl]-3-[(1R)-1-(2-imino-4,4-dimethyl-6-oxo-hexahydropyrimidin-1-yl)-3-methoxy-propyl]benzamide], the EC50 was 52.1 nM. As for `COCC[C@H](c1cccc(C(=O)N[C@@H]2c3ccccc3C[C@]2(C)O)c1)N1C(=N)NC(C)(C)CC1=O` [Example 166B, N-[(1R,2S)-2-hydroxy-2-methyl-indan-1-yl]-3-[(1R)-1-(2-imino-4,4-dimethyl-6-oxo-hexahydropyrimidin-1-yl)-3-methoxy-propyl]benzamide], the EC50 stood at 17.6 nM. For the compound `COCC[C@H](c1cc(F)cc(C(=O)N[C@@H]2c3ccccc3C[C@@]2(C)O)c1)N1C(=N)NC(C)(C)CC1=O` [Example 175A, 3-fluoro-N-[(1R,2R)-2-hydroxy-2-methyl-indan-1-yl]-5-[1-(2-imino-4,4-dimethyl-6-oxo-hexahydropyrimidin-1-yl)-3-methoxy-propyl]benzamide], the EC50 came out at 37.1 nM.

On to `COCC[C@H](c1cc(F)cc(C(=O)N[C@@H]2c3ccccc3C[C@]2(C)O)c1)N1C(=N)NC(C)(C)CC1=O` [Example 175B, 3-fluoro-N-[(1R,2S)-2-hydroxy-2-methyl-indan-1-yl]-5-[1-(2-imino-4,4-dimethyl-6-oxo-hexahydropyrimidin-1-yl)-3-methoxy-propyl]benzamide], for which the EC50 worked out at 9.2 nM.
